Read-outs that look alike come from different tables or passages of the source. Bridge positions count the residues as written; N and C are the ends. Square brackets hold non-standard residues; d marks the D form. Peptide text beside a SMILES is read from it. * marks the point of attachment. EDDnp = O=[N+]([O-])c1ccc(NCCN*)c([N+](=O)[O-])c1; AMC = Cc1cc(=O)oc2cc(N*)ccc12; 2Abz = Nc1ccccc1C(=O)O; Cbz = O=C(OCc1ccccc1)*
Legend:
[1] = molecular target: T1, elastase-1 (Sus scrofa, UniProt P00772); test: Kinetic characterization of elastase-1 inhibition (Michaelis-Menten, Dixon plot); format: biochemical; details: for Elastase inhibition: data not shown
T1 construct: purchased Sigma-Aldrich
T1 sequence (P00772 27-266): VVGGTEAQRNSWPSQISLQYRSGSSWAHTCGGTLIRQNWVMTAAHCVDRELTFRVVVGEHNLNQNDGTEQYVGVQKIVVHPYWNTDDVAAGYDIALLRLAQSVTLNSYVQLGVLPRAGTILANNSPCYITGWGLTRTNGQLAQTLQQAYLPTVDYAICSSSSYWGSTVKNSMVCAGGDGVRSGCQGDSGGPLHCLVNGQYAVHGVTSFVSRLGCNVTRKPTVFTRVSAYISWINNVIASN
Experimental: To determine the inhibition constant (Ki ) of the peptide, firstly the Michaelis-Menten constant (Km ) for the Abz-FRSSRQ-EDDnp hydrolysis by elastase-1 was obtained. For this, the concentrations of 2.5 µM, 5.0 µM, 10.0 µM, 15.0 µM, 25.0 µM and 50.0 µM of the substrate were used, in Tris 50 mM, NaCl 50 mM pH 8.0. Initial rates were determined at an enzyme concentration (100 ng) that would hydrolyze less than 10% of the substrate. The kinetic parameters (Km and Vmax ) were calculated by Michaelis-Menten equation using the Grafit 5 software (Erithacus Software, West Sussex, UK), as previously described. All experiments were performed in duplicate.
The Kunitz-type peptide quantification was determined by the BCA method using insulin as standard (5 µg/µL, 10 µg/µL, 25 µg/µL, 50 µg/µL e 100 µg/µL). To determine the mechanism of action of the Kunitz-type inhibitor, two concentrations of Abz-FRSSRQ-EDDnp, 6.8 µM and 3.4 µM, and two concentrations of the purified peptide, 0.63 µM and 0.94 µM, were utilized. For each substrate concentration it was made a control test (absence of the peptide). The assays were performed in duplicate and during all experiment the consumption of substrate was maintained under 10%. The reactions were monitored in the fluorimeter, as described above, and were analyzed in the Grafit 5 software (Erithacus Software, West Sussex, UK). The mechanism and the inhibition constants were determined through the Dixon plot (1/V x [I]) equation [20]. The plot was made in the software GraphPad Prism 5.

[2] = molecular target: T1, elastase-1; test: Stability test of peptides against hydrolysis by elastase-1 (RP-HPLC); format: in vitro ADME; details: data not shown; for Stability against hydrolysis by elastase-1: peptide 50 mM (so in the source), elastase-1 300 ng, Tris 50 mM, NaCl 50 mM pH 8.0, 37 °C, 4 hours and overnight, C18 RP-HPLC, UV 214 nm, duplicate
Experimental: Samples containing only the synthetic peptides were used as negative control. After incubation, samples were analyzed, in duplicate by reverse phase chromatography on HPLC, using a Shim-pack C-18 column in the same conditions described above.

[3] = molecular target: T2, recombinant human cathepsin L (Homo sapiens, UniProt P07711); test: Stability test of peptides against hydrolysis by cathepsin L (RP-HPLC); format: in vitro ADME; details: cathepsin L 10 ng, NaCl 200 mM, EDTA 5 mM, DTT 6.25 mM pH 5.5; 37 °C; 4 hours and overnight (16 hours); C18 RP-HPLC, UV 214 nm; duplicate; data not shown
T2 construct: purchased R&D systems
Experimental: The synthetic peptides PEP1 and PEP2 (50 mM) were incubated with elastase-1 (300 ng), in Tris 50 mM, NaCl 50 mM pH 8.0 buffer, and cathepsin L (10 ng), in 50 mM, NaCl 200 mM, EDTA 5 mM, DTT 6.25 mM pH 5.5 buffer, at 37 °C in two different time intervals, 4 hours and overnight. Samples containing only the synthetic peptides were used as negative control. After incubation, samples were analyzed, in duplicate by reverse phase chromatography on HPLC, using a Shim-pack C-18 column in the same conditions described above.
Target sequence in this assay (P07711 114-333): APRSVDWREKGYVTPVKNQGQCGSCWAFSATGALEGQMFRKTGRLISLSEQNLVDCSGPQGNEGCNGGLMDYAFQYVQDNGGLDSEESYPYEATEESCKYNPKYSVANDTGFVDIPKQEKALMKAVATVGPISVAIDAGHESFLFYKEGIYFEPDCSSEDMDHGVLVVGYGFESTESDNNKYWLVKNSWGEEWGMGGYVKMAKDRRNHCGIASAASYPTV

[4] = molecular target: T2, recombinant human cathepsin L; test: Kinetic characterization of cathepsin L inhibition (Michaelis-Menten, Dixon plot); format: biochemical
Experimental: To obtain the Michaelis-Menten constant (Km ) of the Z-FR-MCA hydrolysis by cathepsin L (1 ng), 1 µM, 2.5 µM, 5.0 µM, 7.5 µM, 12.5 µM, 15 µM, 20 µM concentrations of Z-FR-MCA substrate were tested in 50 mM, NaCl 200 mM, EDTA 5 mM, DTT 6.25 mM pH 5.5 buffer (final volume of 100 µL).The reactions were continuously monitored (fluorescence at λEM 480 nm and λEX 360 nm) in a fluorimeter (425-301 Hidex, Finland), as described. The maximum speed (Vmax ) and the Km were obtained in the Grafit 5 software. All experiments were performed in duplicate. To determine the mechanism of inhibition and the inhibition constant (Ki ) of inhibitor PEP2, two concentrations of the Z-FR-MCA, 5.2 µM (2 Km ) and 7.8 (3 Km ), and three concentrations of the inhibitor PEP2, 1 µM, 2.5 µM and 5 µM, were used. Samples without PEP2 for each substrate concentration were utilized. The experiments were carried out in duplicates and the consumption of the substrate was maintained under 10%. The results were analyzed in the Grafit 5 software. The mechanism and the inhibition constants were determined through the Dixon plot (1/V x [I]) equation [20], using the software GraphPad Prism 5.

[5] = tested on: trypsin; test: Trypsin inhibition; format: biochemical; details: data not shown
[6] = tested on: chymotrypsin; test: Chymotrypsin inhibition; format: biochemical; details: data not shown
[7] = tested on: potassium channel; details: read-out: Potassium channel blocker activity IC50; cited from earlier work
[8] = molecular target: T3, pancreatic elastase (EC 3.4.21.36) (UniProt P00772 27-266); test: enzyme inhibition kinetics (fluorimetric, Dixon plot); elastase-1 (100 ng) with the FRET substrate Abz-FRSSRQ-EDDnp at 3.4 and 6.8 µM, purified peptide at 0.63 and 0.94 µM; Tris 50 mM, NaCl 50 mM, pH 8.0, 37 °C; duplicates; mechanism found uncompetitive; details: both partners purified
T3 construct: also called elastase-1; source: bought: Sigma-Aldrich
T3 sequence (P00772 27-266): as the sequence (P00772 27-266) above

Molecule: N=C(N)NCCC[C@H](NC(=O)[C@H](Cc1ccccc1)NC(=O)c1ccccc1N)C(=O)N[C@@H](CO)C(=O)N[C@@H](CO)C(=O)N[C@@H](CCCNC(=N)N)C(=O)N[C@@H](CCC(N)=O)C(=O)NCCNc1ccc([N+](=O)[O-])cc1[N+](=O)[O-] [Abz-FRSSRQ-EDDnp, reference compound] (H-[2Abz]FRSSRQ-EDDnp)
- Km ([1]; Michaelis-Menten fit, Std. Error 2.2721 in its own column, read-out: Km, fit parameter value (Additional file 4A), elastase-1): 10.6 µM
- Km ([1]; substrate 2.5-50.0 µM, elastase-1 100 ng, Tris 50 mM, NaCl 50 mM pH 8.0, Grafit 5, duplicate, read-out: Michaelis-Menten constant (Km) of substrate cleavage by elastase-1): 10.7 µM

Molecule: C[C@@H](O)[C@H](NC(=O)[C@H](Cc1ccccc1)NC(=O)CNC(=O)[C@H](CCC(=O)O)NC(=O)[C@H](CS)NC(=O)[C@H](CCC(N)=O)NC(=O)[C@H](CCCCN)NC(=O)[C@@H](N)CCCCN)C(=O)N[C@@H](Cc1c[nH]c2ccccc12)C(=O)N[C@@H](CO)C(=O)NCC(=O)N[C@@H](CS)C(=O)NCC(=O)NCC(=O)N[C@@H](CC(N)=O)C(=O)N[C@@H](CO)C(=O)O [PEP1] (H-KKQCEGFTWSGCGGNS-OH)
- Stability against hydrolysis by elastase-1 [2]: not stable
- Stability against hydrolysis by cathepsin L [3]: hydrolyzed

Molecule: CC[C@H](C)[C@@H]1NC(=O)[C@H](CCCCN)NC(=O)[C@H](CCC(N)=O)NC(=O)[C@H](Cc2ccc(O)cc2)NC(=O)[C@@H](NC(=O)[C@H](CCCNC(=N)N)NC(=O)CNC(=O)[C@@H]2CCCN2)CSSC[C@@H](C(=O)NCC(=O)NCC(=O)O)NC(=O)CNC(=O)[C@H](CO)NC(=O)[C@H](Cc2c[nH]c3ccccc23)NC(=O)[C@H]([C@@H](C)O)NC(=O)[C@H](Cc2ccccc2)NC(=O)CNC(=O)[C@H](CCC(=O)O)NC(=O)[C@H](C(C)C)NC(=O)[C@H](CCC(N)=O)NC(=O)[C@H](CCCCN)NC(=O)[C@H](CCCCN)NC(=O)[C@H](CCCCN)NC(=O)[C@H](CCC(N)=O)NC(=O)[C@H](CC(N)=O)NC(=O)[C@H](Cc2ccc(O)cc2)NC(=O)[C@H](Cc2ccc(O)cc2)NC(=O)[C@H](Cc2ccccc2)NC(=O)[C@H](C)NC(=O)[C@@H]2CCCN2C1=O [PEP2] (H-PGRCYQKIPAFYYNQKKKQVEGFTWSGCGG-OH; disulfide 4-28)
- Ki ([4]; Dixon plot, Z-FR-MCA 5.2 and 7.8 µM (2 and 3 Km), PEP2 0, 1.0, 2.5 and 5.0 µM, cathepsin L 1 ng, pH 5.5 buffer with DTT 6.25 mM, duplicate, read-out: Inhibition constant (Ki) for cathepsin L): 1960 nM
- Stability against hydrolysis by elastase-1 [2]: not stable
- Stability against hydrolysis by cathepsin L [3]: not degraded

Molecule: Cbz-Phe-Arg-{AMC}
- Km ([4]; Michaelis-Menten fit, Std. Error 0.4867 in its own column, read-out: Km, fit parameter value (Additional file 4B), cathepsin L): 2.65 µM
- Km ([4]; substrate 1-20 µM, cathepsin L 1 ng, pH 5.5 buffer, Grafit 5, duplicate, read-out: Michaelis-Menten constant (Km) of substrate hydrolysis by cathepsin L): 2.65 µM

Molecule: Kunitz-type serine protease inhibitor homolog dendrotoxin I (QPLRKLCILHRNPGRCYQKIPAFYYNQKKKQCEGFTWSGCGGNSNRFKTIEECRRTCIRK) [Kunitz-type peptide]
- Mechanism of inhibition of elastase-1 ([1]; Dixon plot (1/V versus [I]), parallel lines): uncompetitive inhibitor
- Elastase inhibition ([1]; peptide 1.26 µM): above 70%
- Elastase inhibition ([1]; peptide 3.52 µM): above 70%
- Stability on incubation with elastase-1 (substrate or not) ([2]; overnight incubation with elastase-1): not an elastase-1 substrate
- Inhibition of trypsin [5]: no other serine protease inhibitions
- Inhibition of chymotrypsin [6]: no other serine protease inhibitions
- IC50 [7]: 0.13 to 50 nM

B1: Kunitz-type serine protease inhibitor homolog dendrotoxin I (peptide)
chain: QPLRKLCILHRNPGRCYQKIPAFYYNQKKKQCEGFTWSGCGGNSNRFKTIEECRRTCIRK
notes: also called Kunitz-type peptide; Kunitz peptide
- Ki [8]: 8000 nM

Reference: PMC7546081, “A Kunitz-type peptide from Dendroaspis polylepis venom as a simultaneous inhibitor of serine and cysteine proteases” (The Journal of Venomous Animals and Toxins Including …, 2020)
